Assay results: publication PMC8151276, “An Integrated Approach toward NanoBRET Tracers for Analysis of GPCR Ligand Engagement” (Molecules, 2021)

Biological target: T1, HTR2B (Homo sapiens, UniProt P41595)
T1 construct: purchased Promega (in-house HiBiT-GPCR construct library, NanoBRET)
Assay: NanoBRET screen HiBiT-HTR2B in HEK293
Assay type: binding
Experimental: Each tracer candidate was screened across the entire library of HiBiT-GPCR constructs using NanoBRET as the detection modality. As depicted in Figure 4A, the specificity of interactions was evaluated through decrease in BRET due to competitive displacement of a bound tracer by excess parental compound. Each tracer was analyzed for binding to each HiBiT-GPCR fusion in the absence and in the presence of competing parental compound. Briefly, HEK293 cells were transfected with HiBiT-GPCR constructs diluted into promoterless DNA to reduce expression and maximize translocation to the cell surface. Each tracer candidate was then screened at concentrations of 1 μM and 0.1 μM across cells expressing these fusions. Cells were treated for 1.5 h with tracer either alone or in the presence of 20 μM competing parental compound (i.e., control). BRET was measured upon addition of purified LgBiT and subsequent complementation with HiBiT genetically fused to a GPCR. The specificity of interactions was assessed through a decrease in BRET signal due to competitive displacement of the bound tracer. To further gauge the robustness of these interactions, the fold response over the control (i.e., BRETtracer/BRETcontrol) was calculated. We chose a 1.5-fold response, which translates to ≥7-fold signal over noise as the minimal threshold required to score an interaction as positive.
HiBiT-GPCR DNA constructs were diluted in 10 mM Tris pH 8 to a final concentration of 0.01 μg/μL, arrayed in 96-well plates and stored at −20 °C. For transfection, HEK293 cells were suspended in Opti-MEM (without phenol red) supplemented with 2% fetal bovine serum (Seradigm) and 100 units/mL penicillin–streptomycin (Gibco) at a final concentration of 220,000 cells/mL and dispensed into white 96-well plates at 90 μL/well. Subsequent transfections and screens were carried using an Agilent Bravo Automated Liquid Handling Platform. First, the 96-well HiBiT DNA arrays were diluted 25-fold in Opti-MEM (without serum or phenol red) to a final concentration of 0.0004 μg/μL and 20 μL of the diluted DNAs were transferred into new 96-well plates. Next, promoterless carrier DNA (1 μg/μL) was diluted 25-fold (0.04 μg/μL) and then dispensed into the diluted arrays at 20 μL/well. Following brief mixing, Viafect transfection reagent (Promega) diluted 16-fold into Opti-MEM was dispensed into the plates at 40 μL/well. After mixing by pipetting, plates were incubated for 10 min on the pipetting station deck. The DNA-transfection reagent complexes were then added to plates containing cells. To facilitate the screen, 10 μL of DNA-transfection reagent complexes were added in duplicates to the top 4 and bottom 4 rows, resulting in two identical 48-well arrays per plate. Plates with transfected cells were incubated for 18–20 h at 37 °C/5% CO2. A screen of each tracer across the entire library using two different concentrations requires duplicate plates of transfected cells. Depending on the number of tracers being screened, transfections can be scaled up using the same ratios. The next day, for each tracer, four 20× screening solutions in tracer dilution buffer (Promega) were prepared: two duplicates at final concentration of 20 μM and two duplicates at a final concentration of 2 μM. […] The four resulting solutions were diluted 4-fold in Opti-MEM without serum or phenol red to generate 5× solutions (5 µM and 0.5 µM tracer +/− 100 μM competing compound). To screen the library, a BioTek MultiFlo FX liquid dispenser was used to dispense 22.5 µL of tracer solution to the top 4 rows and 22.5 µL tracer + competing compound solution to the 4 bottom rows. Plates were briefly mixed on an orbital shaker and incubated for 1.5 h at room temperature. […] Plates were briefly mixed on an orbital shaker and incubated for 15 min to allow complementation.

T1 sequence (P41595 whole entry): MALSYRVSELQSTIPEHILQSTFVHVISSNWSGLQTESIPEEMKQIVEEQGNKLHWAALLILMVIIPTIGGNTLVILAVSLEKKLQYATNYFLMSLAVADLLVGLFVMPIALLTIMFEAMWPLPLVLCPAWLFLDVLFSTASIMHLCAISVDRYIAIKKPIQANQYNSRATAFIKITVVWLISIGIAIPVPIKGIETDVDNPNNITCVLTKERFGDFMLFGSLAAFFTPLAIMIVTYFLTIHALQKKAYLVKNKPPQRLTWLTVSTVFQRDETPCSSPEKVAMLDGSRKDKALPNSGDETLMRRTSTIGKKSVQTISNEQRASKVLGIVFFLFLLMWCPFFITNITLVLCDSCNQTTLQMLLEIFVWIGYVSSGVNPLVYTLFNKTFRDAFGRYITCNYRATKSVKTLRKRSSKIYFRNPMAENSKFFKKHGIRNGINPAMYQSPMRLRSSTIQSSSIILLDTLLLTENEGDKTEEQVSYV

Structure (SMILES): CCOC(=O)c1cc(C#N)c(N2CCC(C(=O)NS(=O)(=O)Cc3ccccc3/C=C/C(=O)NCCNC(=O)CCc3ccc4n3[B-](F)(F)[N+]3=C(c5ccc[nH]5)C=CC3=C4)CC2)nc1C [AZD1283-1-NB590]
- NanoBRET Fold Response (HTR2B, 0.1μM): 1.31
- NanoBRET Fold Response (HTR2B, 1μM): 1.15

Structure (SMILES): N#CN/C(=N\CCNC(=O)c1ccc(N)cc1)NCCCOc1cccc(CN2CCCCC2)c1 [Aminopotentidine (unmodified)]
- NanoBRET Fold Response (HTR2B, other tracers/Aminopotentidine (unmodified), 0.1μM): 1.03
- NanoBRET Fold Response (HTR2B, other tracers/Aminopotentidine (unmodified), 1μM): 0.97

Structure (SMILES): N#CN=C(NCCCOc1cccc(CN2CCCCC2)c1)NCCNC(=O)CCOCCOCCOCCOCCNC(=O)CCc1ccc2n1[B-](F)(F)[N+]1=C(c3ccc[nH]3)C=CC1=C2 [Aminopotentidine-2-NB590]
- NanoBRET Fold Response (HTR2B, tracer 0.1μM): 0.90
- NanoBRET Fold Response (HTR2B, tracer 1μM): 0.91

Structure (SMILES): CN(C)CCC=C1c2ccccc2CCc2ccc(C(=O)NCCNC(=O)CCOCCOCCOCCOCCNC(=O)CCc3ccc4n3[B-](F)(F)[N+]3=C(c5ccc[nH]5)C=CC3=C4)cc21 [Amitriptyline-a-2-NB590]
- NanoBRET Fold Response (tracer at 0.1μM): 0.98
- NanoBRET Fold Response (tracer at 1μM): 1.09

Structure (SMILES): CN(C)CCC=C1c2ccccc2CCc2ccc(C(=O)NCCNC(=O)CCOCCOCCOCCOCCNC(=O)CCc3ccc4n3[B-](F)(F)[N+]3=C(c5ccc[nH]5)C=CC3=C4)cc21 [Amitriptyline-b-2-NB590]
- NanoBRET Fold Response (tracer at 0.1μM, listed as amitriptyline-b-2-NB590): 1.05
- NanoBRET Fold Response (tracer at 1μM, listed as amitriptyline-b-2-NB590): 0.74

Structure (SMILES): CN(CCC=C1c2ccccc2CCc2ccccc21)C(=O)CCOCCOCCOCCOCCNC(=O)CCc1ccc2n1[B-](F)(F)[N+]1=C(c3ccc[nH]3)C=CC1=C2 [Amitriptyline-e-2-NB590]
- NanoBRET Fold Response (tracer at 1μM): 1.02

Structure (SMILES): COc1ccc2c(n1)c(CCNC(C)=O)cn2CCNC(=O)CCc1ccc2n1[B-](F)(F)[N+]1=C(c3ccc[nH]3)C=CC1=C2 [Azamelatonin-1-NB590]
- NanoBRET Fold Response (0.1μM tracer): 0.98
- NanoBRET Fold Response (1μM tracer): 0.98

Structure (SMILES): COc1ccc2[nH]c(-c3ccc(CNC(=O)CCOCCOCCOCCOCCNC(=O)CCc4ccc5n4[B-](F)(F)[N+]4=C(c6ccc[nH]6)C=CC4=C5)cc3)c(CCNC(C)=O)c2n1 [AzomelatoninICO9-2-NB590]
- NanoBRET Fold Response (0.1μM tracer): 0.81
- NanoBRET Fold Response (1μM tracer): 1.08

Structure (SMILES): O=C(CCOCCOCCOCCOCCNC(=O)CCc1ccc2n1[B-](F)(F)[N+]1=C(c3ccc[nH]3)C=CC1=C2)NCCCN1CCN(C2=Nc3cc(Cl)ccc3Nc3ccccc32)CC1 [Clozapine-a-2-NB590]
- NanoBRET Fold Response (HTR2B, 0.1μM tracer): 1.08
- NanoBRET Fold Response (HTR2B, 1μM tracer): 1.14

Structure (SMILES): O=C(CCOCCOCCOCCOCCNC(=O)CCc1ccc2n1[B-](F)(F)[N+]1=C(c3ccc[nH]3)C=CC1=C2)NCCCN1CCN(C2=Nc3ccccc3Oc3ccc(Cl)cc32)CC1 [Loxapine-a-2-NB590]
- NanoBRET Fold Response (HTR2B, tracer 0.1μM): 1.04
- NanoBRET Fold Response (HTR2B, tracer 1μM): 1.25

Structure (SMILES): COc1ccccc1N1CCN(CCCCN2C(=O)c3ccc(CNC(=O)CCOCCOCCOCCOCCNC(=O)CCc4ccc5n4[B-](F)(F)[N+]4=C(c6ccc[nH]6)C=CC4=C5)cc3C2=O)CC1 [NAN-190-2-NB590]
- NanoBRET Fold Response (HTR2B, tracer 0.1μM): 0.92

Structure (SMILES): COc1ccccc1N1CCN(CCCCN2C(=O)c3ccc(CNC(=O)CCOCCNC(=O)c4ccc(CNC(=O)CCc5ccc6n5[B-](F)(F)[N+]5=C(c7ccc[nH]7)C=CC5=C6)cc4)cc3C2=O)CC1 [NAN-190-3-NB590]
- NanoBRET Fold Response (HTR2B, tracer 0.1μM): 0.92
- NanoBRET Fold Response (HTR2B, tracer 1μM): 0.80

Structure (SMILES): O=C(CCc1ccc2n1[B-](F)(F)[N+]1=C(c3ccc[nH]3)C=CC1=C2)NCc1ccc(C(=O)NCCOCCC(=O)N[C@@H]2CC[C@@]3(O)[C@H]4Cc5ccc(O)c6c5[C@@]3(CCN4CC3CC3)[C@H]2O6)cc1 [Naltrexone-3-NB590]
- NanoBRET Fold Response (HTR2B, tracer 0.1μM): 1.13
- NanoBRET Fold Response (HTR2B, tracer 1μM): 0.98

Structure (SMILES): Cc1cc2c(s1)Nc1ccccc1N=C2N1CCN(CCCNC(=O)CCOCCOCCOCCOCCNC(=O)CCc2ccc3n2[B-](F)(F)[N+]2=C(c4ccc[nH]4)C=CC2=C3)CC1 [Olanzapine-a-2-NB590]
- NanoBRET Fold Response (HTR2B, tracer 0.1μM): 1.12
- NanoBRET Fold Response (HTR2B, tracer 1μM): 1.36

Structure (SMILES): O=C(CCc1ccc2n1[B-](F)(F)[N+]1=C(c3ccc[nH]3)C=CC1=C2)NCc1ccc(C(=O)NCCOCCOCCNCC(O)COc2cccc3ccccc23)cc1 (centres unmarked) [Propranolol-3-NB590]
- NanoBRET Fold Response (HTR2B, 0.1μM): 1.13
- NanoBRET Fold Response (HTR2B, 1μM): 1.00

Structure (SMILES): O=C(CCc1ccc2n1[B-](F)(F)[N+]1=C(c3ccc[nH]3)C=CC1=C2)NCCOCCOCCNC(=O)OCCOCCN1CCN(C2=Nc3ccccc3Sc3ccccc32)CC1 [Quetiapine-a-2-NB590]
- NanoBRET Fold Response (HTR2B, tracer 0.1μM): 1.51
- NanoBRET Fold Response (HTR2B, tracer 1μM): 1.14

Structure (SMILES): Cc1nc2n(c(=O)c1CCN1CCC(c3noc4cc(F)ccc34)CC1)CCCC2OC(=O)NCCOCCOCCOCCOCCNC(=O)CCc1ccc2n1[B-](F)(F)[N+]1=C(c3ccc[nH]3)C=CC1=C2 (centres unmarked) [Risperidone-2-NB590]
- NanoBRET Fold Response (HTR2B, tracer 0.1μM): 1.03
- NanoBRET Fold Response (HTR2B, tracer 1μM): 1.32

Structure (SMILES): CC(C)N(CC[C@H](c1ccccc1)c1cc(CCNC(=O)CCOCCOCCOCCOCCNC(=O)CCc2ccc3n2[B-](F)(F)[N+]2=C(c4ccc[nH]4)C=CC2=C3)ccc1O)C(C)C [Tolterodine-2-NB590]
- NanoBRET Fold Response (HTR2B, tracer 0.1μM): 0.68
- NanoBRET Fold Response (HTR2B, tracer 1μM): 0.81

Structure (SMILES): CC(C)N(CC[C@H](c1ccccc1)c1cc(CCNC(=O)c2ccc(CNC(=O)CCc3ccc4n3[B-](F)(F)[N+]3=C(c5ccc[nH]5)C=CC3=C4)cc2)ccc1O)C(C)C [Tolterodine-BZ-NB590]
- NanoBRET Fold Response (HTR2B, tracer 0.1μM): 0.83
- NanoBRET Fold Response (HTR2B, tracer 1μM): 1.07

Structure (SMILES): CCCn1c(=O)c2[nH]c(-c3ccc(OCC(=O)NCCNC(=O)CCOCCNC(=O)c4ccc(CNC(=O)CCc5ccc6n5[B-](F)(F)[N+]5=C(c7ccc[nH]7)C=CC5=C6)cc4)cc3)nc2n(CCC)c1=O [XAC-3-NB590]
- NanoBRET Fold Response (HTR2B, tracer 0.1μM): 1.29
- NanoBRET Fold Response (HTR2B, tracer 1μM): 0.78
